Assay results reported in publication PMC9961069 (Metabolites, 2023).

Columns and labels:
purified human DHFR = biological target: T1, purified human DHFR (Homo sapiens, UniProt P00374); test: DHFR enzymatic inhibition assay (NADPH absorbance at 340 nm); assay type: biochemical; conditions: 200 nM DHFR, 137.5 μM DHF, 125 μM NADPH; n = 2; read-out: IC50
T1 construct: made in house; host or cells: E. coli BL21 (DE3) T1R pRARE2, pNIC-Bsa4 plasmid
T1 sequence (P00374 1-187): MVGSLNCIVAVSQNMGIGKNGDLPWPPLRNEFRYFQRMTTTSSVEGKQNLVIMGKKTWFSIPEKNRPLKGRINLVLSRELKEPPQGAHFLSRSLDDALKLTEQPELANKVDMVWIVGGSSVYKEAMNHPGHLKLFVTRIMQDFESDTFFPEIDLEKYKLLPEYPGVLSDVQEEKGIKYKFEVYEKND
Protocol: Working stocks of each inhibitor were created so that the final concentration of DMSO in each reaction was 2% in a final reaction volume of 100 μL. […] Reactions were prepared on ice in 384-well plates. […] Consumption of NADPH by measuring absorbance at 340 nm was used to monitor the progress of the reaction. Readings were taken every 5 min for 1 h at 37 °C using a Synergy MX microplate reader (BioTek).
Percent inhibition relative to the no-inhibitor control was determined using Equation (1). (1) % Inhibition=A340Inhibitor−A340DMSO Control/A340No DHFR−A340DMSO Control×100
Percent inhibition data were then fit to the four-parameter logistic model (Equation (2)) in GraphPad Prism 9.4.1 to determine half-maximal inhibitory concentrations (IC50):(2) y=Bottom+Top−Bottom/1+IC50/x^Hill slope where y represents the percent inhibition, x represents the concentration of inhibitor (μM), the bottom and top represent the bottom and top plateaus, and the Hill slope represents the slope factor. Each experiment contained duplicates of each sample, and each experiment was performed 2 times (n = 2). An ordinary one-way ANOVA was used to test for statistical significance between treatments.

MCF-7 cells = test: Resazurin viability assay with or without folinic acid, MCF-7; assay type: cell-based, Human; conditions: 72 h; for Relative Viability (%) – Inhibitor + FA Treatment: MCF-7, 10 μM + 300 μg/mL folinic acid; for Rescue of viability impairment by folinic acid: MCF-7, 10 μM ± 300 μg/mL FA; for Relative Viability (%) – Inhibitor Alone: MCF-7, 10 μM, relative to DMSO
Protocol: (§1) The incorporation and metabolism of resazurin to resorufin was used to monitor cell viability. MDA-MB-468, MCF7, and MDA-MB-231 cells were grown in 96-well plates with a total of 5000 cells per well in a total volume of 180 μL for 24 h, as described above. After 24 h of growth, cells were treated with increasing concentrations of compounds (0.0457–100 μM) for 72 h. A vehicle control was also performed. […] The volume of treatment added to each well was 20 μL. For folinic acid rescue experiments, 5000 cells were treated with 10 μM compound with or without 300 μg/mL folinic acid (Supelco). After 72 h of treatment, resazurin was added to a final concentration of 44 μM, and cells were incubated for an additional 4 h at 37 °C. The fluorescence of resorufin was monitored on a Synergy MX microplate reader (BioTek) using an excitation wavelength of 540 nm and an emission wavelength of 600 nm. Percent viability relative to the DMSO control was determined. Each treatment was performed in triplicate, and each individual experiment was repeated three times (n = 3).

MDA-MB-231 cells = test: Resazurin viability assay with or without folinic acid, MDA-MB-231; assay type: cell-based, Human; conditions: 72 h; for Relative Viability (%) – Inhibitor + FA Treatment: MDA-MB-231, 10 μM + 300 μg/mL folinic acid; for Rescue of viability impairment by folinic acid: MDA-MB-231, 10 μM ± 300 μg/mL FA; for Relative Viability (%) – Inhibitor Alone: MDA-MB-231, 10 μM, relative to DMSO
Protocol: as §1

MDA-MB-468 cells = test: Resazurin viability assay with or without folinic acid, MDA-MB-468; assay type: cell-based, Human; conditions: 72 h; for Relative Viability (%) – Inhibitor + FA Treatment: MDA-MB-468, 10 μM + 300 μg/mL folinic acid; for Rescue of viability impairment by folinic acid: MDA-MB-468, 10 μM ± 300 μg/mL FA; for Relative Viability (%) – Inhibitor Alone: MDA-MB-468, 10 μM, relative to DMSO
Protocol: as §1

DHFR in MDA-MB-468 cells = system: T2, DHFR in MDA-MB-468 cells; test: DHFR accumulation assay (Western blot); assay type: cell-based, Human; conditions: MDA-MB-468, 24 h, range 0.012–1 nM
T2 construct: reactions containing 55 μg MDA-MB-468 lysate; endogenous in cells; host or cells: MDA-MB-468
Protocol: Trypsinized MDA-MB-468 cells were seeded into 6-well plates at a density of 300,000 cells per 2 mL of media and allowed to adhere for 24 h. […] The final concentration of DMSO in each well was 1%. A DMSO-only control was also performed on each individual plate. Cells were then trypsinized, harvested by centrifugation at 200× g for 5 min at 4 °C, and washed once with PBS/PIC. Cell pellets were flash frozen using an ethanol/dry ice bath and stored at −80 °C prior to lysis. Each cell pellet was lysed as described above using 50 μL PBS/PIC per cell pellet. Samples were then analyzed by Western blot, as described below, using 30 μg lysate per lane. Band intensities of DHFR were normalized to the loading control SOD1 via densitometry using ImageJ (Fiji), and each DHFR band was normalized to the DMSO control. Fold-change in DHFR band intensity was plotted against inhibitor concentration (μM). Each experiment was performed two separate times as individual biological replicates (n = 2).
(§2) Proteins were electrophoretically separated on a 10% gel, and proteins were transferred to a methanol-activated PVDF membrane using the Trans-Blot Turbo transfer system (Bio-Rad) for 7 min at 1.3 A and 25 V in Trans-Blot Turbo transfer buffer (Bio-Rad). Membranes were blocked with 5% skim milk w/v in TBS-T (20 mM Tris, 150 mM NaCl, 0.05% Tween-20) for 1 h at room temperature. […] The horseradish peroxidase (HRP)-linked anti-mouse IgG secondary antibody (NA931, Cytiva; 1:3000) was added for 1 h at room temperature in 5% skim milk w/v in TBS-T. Signal was detected by adding Immobilon Forte Western HRP Substrate (Millipore), and chemiluminescence was captured on a Sapphire Biomolecular Imager (Azure Biosystems). Band densities were determined using ImageJ (Fiji). The band intensity of DHFR was normalized to the thermostable loading control SOD1 [22].

[1] = system: MDA-MB468, MDA-MB-231, and MCF-7 breast cancer cell lines; test: Dose-response viability in breast cancer cell lines (statements not split by line); assay type: cell-based, Human; conditions: 0–100 μM, 72 h
Protocol: as §1

leukemia = system: leukemia; design: method as in PMID 5479856, PMID 5479852, PMID 5241406; conditions: early studies in the 1970s; cited from earlier work
[2] = system: T3, DHFR in MDA-MB-468 lysates; test: Lysate cellular thermal shift assay (CETSA) for DHFR; assay type: binding, Human; conditions: 10 μM, MDA-MB-468 lysate, 45 °C for 3 min, DMSO at 37 °C = 100%
T3 construct: reactions containing 55 μg MDA-MB-468 lysate; endogenous in cells; host or cells: MDA-MB-468
Protocol: Trypsinized MDA-MB-468 cells were harvested by centrifugation at 200× g for 5 min and washed with PBS supplemented with EDTA-free PIC (Roche) and flash frozen for storage at −80 °C. Cells were lysed by resuspension in 60 μL PBS/PIC per 1 × 10^6 cells. Cells were lysed by three freeze-thaw cycles, where cells were frozen in an ethanol/dry ice bath for 3 min, immediately followed by incubation in a 37 °C water bath for 3 min. The insoluble fraction was removed by centrifugation at 20,000× g for 20 min at 4 °C. The supernatant containing the soluble lysate was removed and saved for subsequent steps.
After incubation, each reaction was transferred to a 1.5 mL tube and centrifuged at 20,000× g for 20 min at 4 °C to remove the insoluble proteins. After centrifugation, 18 μL of supernatant was carefully removed from each reaction, without disturbing any pelleted aggregates, and added to 4.5 μL of 5× SDS-PAGE loading buffer. 11 μL of each reaction was loaded onto a gel in duplicate, and proteins were detected by Western blot (as described below). Resulting band densities were fit to the Boltzmann equation to determine the melting temperature (Tm):(3) y=Bottom+Top−Bottom/1+e^Tm−x/Slope
To rescue the thermal degradation of DHFR by inhibitors, samples containing 10 μM inhibitor, 55 μg lysate, and 1% DMSO in a total volume of 28 μL in DHFR buffer were prepared in PCR tubes and incubated at room temperature for 20 min. Two DMSO-only controls were also prepared. Reactions containing inhibitors were then incubated at 45 °C for 3 min. One DMSO-only control was also heated at 45 °C for 3 min, and the other control was heated at 37 °C for 3 min. The soluble protein fraction was separated from the insoluble proteins by centrifugation, and proteins were separated by SDS-PAGE, as described above, and analyzed via Western blot, as described below. Each experiment was repeated 3 times.
as §2

IC50 (purified human DHFR)	Compound	Relative Viability (%) – Inhibitor + FA Treatment (MCF-7 cells)	Rescue of viability impairment by folinic acid (MCF-7 cells)	Relative Viability (%) – Inhibitor Alone (MCF-7 cells)	Relative Viability (%) – Inhibitor + FA Treatment (MDA-MB-231 cells)	Rescue of viability impairment by folinic acid (MDA-MB-231 cells)	Relative Viability (%) – Inhibitor Alone (MDA-MB-231 cells)	Relative Viability (%) – Inhibitor + FA Treatment (MDA-MB-468 cells)	Rescue of viability impairment by folinic acid (MDA-MB-468 cells)	Relative Viability (%) – Inhibitor Alone (MDA-MB-468 cells)	Concentration giving notable accumulation of DHFR (DHFR in MDA-MB-468 cells)	Phenotypic response in viability dose-response [1]	Anti-leukemic activity in vivo (leukemia)	Normalized Band Density (%) of soluble DHFR [2]	Normalized Band Density (%) of soluble DHFR ([2]; listed as NSC123032)	Normalized Band Density (%) of soluble DHFR ([2]; listed as NSC127153)
720 ± 240 nM	CC1(C)N=C(N)N=C(N)N1c1ccc(CCCCc2ccccc2)c(Cl)c1 [compound 128184]	48.65 ± 6.9%	failed to rescue	35.94 ± 11.4%	53.14 ± 12.7%	failed to rescue	42.94 ± 9.7%	16.09 ± 10.4%	failed to rescue	12.35 ± 8.6%	0.33 nM	induce growth arrest at low concentrations and induce cell death at higher concentrations	promising anti-leukemic activity in vivo	–	–	–
930 ± 240 nM	CC1(C)N=C(N)N=C(N)N1c1ccc(CCCCc2ccccc2)cc1 [compound 127153]	56.75 ± 7.9%	failed to rescue	43.03 ± 13.9%	55.71 ± 12.7%	failed to rescue	45.99 ± 10.6%	23.92 ± 7.7%	failed to rescue	17.90 ± 7.8%	0.33 nM	induce growth arrest at low concentrations and induce cell death at higher concentrations	promising anti-leukemic activity in vivo	greater than 100%	–	100.16 ± 36.4%

Compound	IC50 (purified human DHFR)	Relative Viability (%) – Inhibitor + FA Treatment (MCF-7 cells)	Rescue of viability impairment by folinic acid (MCF-7 cells)	Relative Viability (%) – Inhibitor Alone (MCF-7 cells)	Relative Viability (%) – Inhibitor + FA Treatment (MDA-MB-231 cells)	Rescue of viability impairment by folinic acid (MDA-MB-231 cells)	Relative Viability (%) – Inhibitor Alone (MDA-MB-231 cells)	Relative Viability (%) – Inhibitor + FA Treatment (MDA-MB-468 cells)	Rescue of viability impairment by folinic acid (MDA-MB-468 cells)	Relative Viability (%) – Inhibitor Alone (MDA-MB-468 cells)	Concentration giving notable accumulation of DHFR (DHFR in MDA-MB-468 cells)	Phenotypic response in viability dose-response [1]	Anti-leukemic activity in vivo (leukemia)	Normalized Band Density (%) of soluble DHFR [2]	Normalized Band Density (%) of soluble DHFR ([2]; listed as NSC123032)	Normalized Band Density (%) of soluble DHFR ([2]; listed as NSC127153)
CC1(C)N=C(N)N=C(N)N1c1ccc(CCCCc2ccc(S(=O)(=O)F)cc2)cc1 [compound 123032]	1170 ± 460 nM	104.16 ± 6.3%	–	81.94 ± 19.4%	103.45 ± 16.5%	largest amplitude of rescue	57.55 ± 3.1%	66.59 ± 2.1%	rescued in all but MDA-MB-468 cells	71.41 ± 10.0%	–	little effect at low concentrations and cytotoxicity at higher concentrations	promising anti-leukemic activity in vivo	greater than 100%	121.24 ± 45.6%	–
